What is called Ki is a measure of affinity in units of concentration, obtained from inhibition or displacement. A higher Ki goes with lower affinity. A word on the IC50: it is the point on the concentration scale where inhibition reaches its midpoint.

This is an account of results in ChEMBL document CHEMBL5634115, “Exploring novel anticancer pyrazole benzenesulfonamides featuring tail approach strategy as carbonic anhydrase inhibitors” (Eur J Med Chem, 2023).

For assay [1], the target named is Carbonic anhydrase 9 (Homo sapiens, UniProt Q16790).
Description: Binding affinity to human CA9 assessed as inhibition constant
In assay [2] the target is T1, Carbonic anhydrase 12 (Homo sapiens, UniProt O43570).
T1 sequence (O43570 whole entry): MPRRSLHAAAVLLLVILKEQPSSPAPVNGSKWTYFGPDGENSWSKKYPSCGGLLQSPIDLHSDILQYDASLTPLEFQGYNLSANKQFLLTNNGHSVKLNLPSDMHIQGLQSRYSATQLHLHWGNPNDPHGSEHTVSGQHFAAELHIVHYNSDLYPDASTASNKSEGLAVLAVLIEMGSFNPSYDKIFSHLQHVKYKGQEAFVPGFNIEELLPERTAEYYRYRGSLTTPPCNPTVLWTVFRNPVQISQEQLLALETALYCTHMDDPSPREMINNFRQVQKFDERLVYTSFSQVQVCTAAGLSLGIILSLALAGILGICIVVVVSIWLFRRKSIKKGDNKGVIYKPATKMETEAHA
Description: Binding affinity to human CA12 assessed as inhibition constant
Assay [3] deals with T1, Carbonic anhydrase 12. The source holds these as a separate data set.
Description: Inhibition of human carbonic anhydrase 12 preincubated for 15 mins followed by substrate addition and measured after 30 mins by spectrophotometric method

SMILES strings stand for the structures.

As to `CCOC(=O)c1cc(-c2ccc(C)cc2)n(-c2ccc(S(N)(=O)=O)cc2)n1`, the Ki in assay [1] was determined as 176 nM.

Consider `NS(=O)(=O)c1ccc(C(=O)N/N=C/c2ccccc2O)cc1`, for which the Ki in assay [2] was found to be 32.7 nM; in assay [1], 18.9 nM.

In the case of `CCn1c(-c2cc(C(=O)O)[nH]n2)cc2ccccc21`, the values for the Ki in assay [2] and in assay [1] were 7.78 nM and 7.79 nM, respectively.

As to `CCOC(=O)c1cc(-c2ccccc2)n(-c2ccc(S(N)(=O)=O)cc2)n1`, in assay [1], the Ki came out at 225 nM.

As to `Cc1ccc(-c2nn(-c3ccc(S(N)(=O)=O)cc3)cc2/C=N/Nc2ccc(S(N)(=O)=O)cc2)cc1`, the IC50 in assay [3] was found to be 144 nM.

`CCOC(=O)c1cc(-c2ccc([N+](=O)[O-])cc2)n(-c2ccc(S(N)(=O)=O)cc2)n1` gave a Ki in assay [1] of 20.5 nM.
